Literature values, collected in patent publication US20030124112A1, “Use of a lacrophyl preparation in eye drops containing therpeutically active compounds” (priority 2000, published 2003).

What was measured:
tear lysozyme = settings: dropped in the eye, glaucome
[1] = 0.0001% benzalkonium-chloride, in vitro

Row | Compound | effect on amount of tear lysozyme (tear lysozyme) | effect on cells [1]
1 | CC(C)(C)NCC(O)COc1cccc2c1CCC(=O)N2 (stereo not drawn) [cartelol] | decrease of the amount of tear lysozyme | –
2 | CC(C)(C)NC[C@H](O)COc1nsnc1N1CCOCC1 [timolol] | decrease of the amount of tear lysozyme | –
3 | benzalkonium-chloride | – | causes cell death
